The text below walks through data of patent EP2934524B1, “PENETHAMATE VETERINARY INJECTABLE FORMULATIONS” (Alleva Animal Health Limited, priority 2012, dated 2014).

The nature of series [1]: Estimated solubility and discolouration of penethamate in organic solvents. It counts as physicochemical. Particulars: Solketal, propylene glycol, glycerol formal and DGMEE. The text has this:
Solubility of penethamate was estimated at the concentrations of 0.2% w/w and 1.0% w/w, in the following solvents: glycerine, Solketal, polyethylene glycol 200 (PEG 200), diethylene glycol butyl ether (DGBE), propylene glycol (PG), glycofural, diethylene glycol monomethyl ether (DGME), diethylene glycol methyl ethyl ether (DGMEE), dimethyl isosorbide (DMI), 2-pyrrolidone (2-pyrol), N-methyl-2-pyrrolidone (NMP), dimethyl acetamide (DMA), glycerol formal (GF), benzyl alcohol (BA), ethyl lactate and dimethyl sulfoxide (DMSO).

The conditions of series [2]: following injection, equivalent dose; cited from earlier work.

Structures are written as SMILES.

For the compound `CCN(CC)CCOC(=O)[C@@H]1N2C(=O)[C@@H](NC(=O)Cc3ccccc3)[C@H]2SC1(C)C` [penethamate hydriodide, 2-(diethylamino)ethyl (2S,5R,6R)-3,3-dimethyl-7-oxo-6-[(2-phenylacetyl)amino]-4-thia-1-azabicyclo[3.2.0] heptane-2-carboxylate], in series [1] (0.2% w/w and 1.0% w/w in glycerine), the “discolouration in organic solvent” value is recorded as “no discolouration”. Further, the “solubility in organic solvent” value in series [1] (estimated at 0.2% w/w and 1.0% w/w in glycerine) was “minimal solubility”. In series [2], the “levels of penicillin in the milk relative to other benzyl-penicillin preparations” value is “about 10 times higher”.
